Data set [1] deals with Leishmania infantum promastigotes. The data set is described as follows: In vitro antileishmanial activity on L. infantum promastigotes (MTT, 72 h). The class given is cell-based. The conditions noted are these: Leishmania infantum, read-out: Anti-L. infantum Promastigote Activity EC50. On the procedure:
Luciferase-expressing Leishmania infantum was kindly provided by Professor Thierry Lang of the Institut Pasteur. L. infantum promastigotes were routinely grown at 27 °C in Schneider’s Drosophila Medium (Dominique […] SAS, Bernolsheim, France) supplemented with 10% fetal calf serum, 2% human urine, sodium pyruvate 0.04 mM, hemin 0.1 µg/mL, HEPES 5 mM, streptomycin 100 µg/mL, penicillin 100 U/mL, L-glutamine 2 mM (culture medium). The in vitro evaluation of the antileishmanial activity of the tested compound on L. infantum promastigotes forms was assessed according to the Mosmann protocol with slight modifications. […] Appropriate controls treated with DMSO, Miltefosine, Amphotericin B and Fexinidazole sulfone (reference drugs purchased from Sigma-Aldrich, Saint-Louis, MO, USA) were added to each set of experiments. The plates were incubated at 27 °C for 72 h, Then, each plate-well was microscope-analyzed to detect any precipitate formation. Afterward, 20 µL of MTT (3-(4,5-dimethylthiazol-2-yl)-2,5-diphenyltetrazolium bromide) (Sigma-Aldrich, Saint-Louis, MI, USA) solution (5 mg/mL in PBS) were added to each well and incubated at 27 °C for 4 h. The reaction was then stopped by the addition of 100 µL of 10% sodium dodecyl sulfate—50% isopropanol. Plates were shaken vigorously at 400 rpm for 10 min. […] EC50 values represent the mean value calculated from at least three separate experiments.

The subject of a further data set is HepG2 cell line. In words: In vitro cytotoxicity on the human hepatic HepG2 cell line (MTT, 72 h). The conditions noted are these: for Selectivity INDEX (SI = CC50/EC50): HepG2 CC50 / L. infantum promastigote EC50; for CC50: read-out: HepG2 Cytotoxicity CC50, HepG2, 72 h, MTT. On the procedure:
(§1) HepG2 cell line (hepatocarcinoma cell line purchased from ATCC, ref HB-8065) was maintained at 37 °C, 5% CO2 with 90% humidity in MEM supplemented with 10% fetal bovine serum, 1% L-glutamine (200 mM) and penicillin (100 U/mL)/streptomycin ([…]) (complete MEM medium). The tested molecules’ cytotoxicity was assessed according to the method of Mosmann with slight modifications. Briefly, 5 × 10^3 cells in 100 μL of complete medium were inoculated into each well of 96-well plates and incubated at 37 °C in a humidified 5% CO2. After 24 h incubation, 100 μL of medium with various product concentrations dissolved in DMSO (final concentration less than 0.5% v/v) were added and the plates were incubated for 72 h at 37 °C. Triplicate assays were performed for each sample. Each plate well was then microscope-examined to detect possible precipitate formation before the medium was aspirated from the wells. Then, 100 μL of MTT (3-(4,5-dimethyl-2-thiazolyl)-2,5-diphenyl-2H-tetrazolium bromide) solution (0.5 mg/mL in medium without FCS) were then added to each well. Cells were incubated for 2 h at 37 °C, following which the MTT solution was removed and DMSO (100 μL) was added to dissolve the resulting blue formazan crystals. Plates were shaken vigorously (700 rpm) for 10 min. The absorbance was measured at 570 nm with 630 nm as reference wavelength using a TECAN Infinite F-200 spectrophotometer (Tecan Trading AG, Männedorf, Switzerland). DMSO was used as blank and doxorubicin (purchased from Sigma Aldrich, Saint Louis, MI, USA) as positive control. Cell viability was calculated as a percentage of control (cells incubated without compound). […] CC50 values represent the mean value calculated from three separate experiments.

Experiment in data set [2]: as above
The conditions noted are these: human. On the procedure: as §1

Data set [3] is described as follows: In vitro cytotoxicity on the human monocyte THP-1 cell line (MTT, 72 h). The class given is cell-based. The conditions noted are these: human; THP-1, 72 h, MTT. On the procedure:
The undifferentiated THP1 human monocyte cells (acute monocytic leukemia cell line purchased from ATCC, ref TIB-202) were routinely grown in RPMI 1640 medium (Life Technologies, Saint-Aubin, France) supplemented with 10% FCS (Life Technologies, Saint-Aubin, France), 100 U/mL penicillin, 100 µg/mL streptomycin and 2 mM L-glutamine at 37 °C, 5% CO2. The culture was maintained between 3.10^5 and 8.10^5 cells/mL. […] Wells were washed with RPMI and 100 µL of fresh complete medium was added. […] Then, 100 µL of MTT solution (0.5 mg/mL in medium) was added to each well. Cells were incubated for 2 h at 37 °C. […] Plates were shaken vigorously (700 rpm) for 10 min. […] (Palo Alto, CA, USA).

The mark [4] stands for this setting: HepG2 cells (hepatocarcinoma cell line, ATCC HB-8065), HepG2 Cytotoxicity CC50, HepG2, 72 h, MTT.

Read-outs that look alike come from different tables or passages of the source.

For `O=C(CN1C(=O)S/C(=C\c2ccccc2[N+](=O)[O-])C1=O)Nc1ccccc1Cl` [Compound 28b, (Z)-N-(2-Chlorophenyl)-2-(5-(2-nitrobenzylidene)thiazolidine-2,4-dion-3-yl) acetamide], the melting point is 174 to 175 °C. In addition, the EC50 in data set [1] (L. infantum promastigotes, MTT) was determined as 16.1 ± 4.32 µM. Moreover, the “Selectivity INDEX (SI = CC50/EC50)” value with HepG2 cell line is reported as 1.4. It took 23 ± 3.2 µM to reach half-maximal cytotoxicity in data set [2] (setting [4]) (CC50 at 72 h).
In turn, `O=C(CN1C(=O)S/C(=C\c2ccccc2[N+](=O)[O-])C1=O)c1ccccc1` [Compound 16b, (Z)-5-(2-Nitrobenzylidene)-3-(2-oxo-2-phenylethyl)thiazolidine-2,4-dione] came in with a melting point of 156 to 158 °C. Further, the half-maximal effective concentration (EC50) in data set [1] (L. infantum promastigotes, MTT) worked out at 5.57 ± 1.28 µM. The “Selectivity INDEX (SI = CC50/EC50)” value with HepG2 cell line is reported as 2.0. The compound also returned a cytotoxic concentration (CC50) at 72 h in data set [2] (setting [4]) of 11 ± 2.28 µM.
Taken in the same sequence, the figures for `N#CCN1C(=O)S/C(=C\c2ccc([N+](=O)[O-])cc2)C1=O` [Compound 14d, (Z)-2-(5-(4-Nitrobenzylidene)thiazolidine-2,4-dion-3-yl)acetonitrile] were 193 to 195 °C, 24.8 ± 6.09 µM, 4.4 and 109 ± 11 µM.
As for `COc1cc(/C=C2\SC(=O)N(CC(=O)Nc3ccc(Cl)cc3)C2=O)cc(OC)c1OC` [Compound 27e, (Z)-N-(4-Chlorophenyl)-2-(5-(3,4,5-trimethoxybenzylidene)thiazolidine-2,4-dion-3-yl)acetamide], the melting point lay within 218 to 219 °C. In data set [1] (L. infantum promastigotes, MTT), the EC50 was 5 ± 1.98 µM. The “Selectivity INDEX (SI = CC50/EC50)” value with HepG2 cell line was 3.9. For the same compound, the midpoint of cytotoxicity in data set [2] (setting [4]), the CC50 at 72 h, lay at 19.4 ± 2.05 µM.
Taken in the same sequence, the figures for `O=C(CN1C(=O)S/C(=C\c2ccccc2[N+](=O)[O-])C1=O)Nc1ccccc1` [Compound 23b, (Z)-2-(5-(2-Nitrobenzylidene)thiazolidine-2,4-dion-3-yl)-N-phenylacetamide] were 186 to 188 °C, 11.6 ± 3.43 µM, 1.9 and 22.3 ± 0.59 µM.
With `COc1cccc2c1C(=O)c1c(O)c3c(c(O)c1C2=O)C[C@@](O)(C(=O)CO)C[C@@H]3O[C@H]1C[C@H](N)[C@H](O)[C@H](C)O1` [Doxorubicin, reference compound], in the data set on HepG2 cell line, the CC50 worked out at 0.2 ± 0.02 µM. Besides, in data set [3], the CC50 at 72 h stood at 2.2 ± 0.1 µM.
As to `O=C(CN1C(=O)S/C(=C\c2ccc([N+](=O)[O-])cc2)C1=O)Nc1ccc(Cl)cc1` [Compound 27d, (Z)-N-(4-Chlorophenyl)-2-(5-(4-nitrobenzylidene)thiazolidine-2,4-dion-3-yl) acetamide], the melting point lay within 252 to 254 °C. For the same compound, the EC50 in data set [1] (L. infantum promastigotes, MTT) was determined as 17.3 ± 4.17 µM. Further, in the data set with HepG2 cell line, the “Selectivity INDEX (SI = CC50/EC50)” value was >0.7. Moreover, the CC50 at 72 h in data set [2] (setting [4]) is > 12.5 µM.
Taken in the same sequence, the figures for `O=C(CN1C(=O)S/C(=C\c2cccc([N+](=O)[O-])c2)C1=O)c1ccccc1` [Compound 16c, (Z)-5-(3-Nitrobenzylidene)-3-(2-oxo-2-phenylethyl)thiazolidine-2,4-dione] were 160 to 162 °C, 3.22 ± 0.94 µM, >3.9 and > 12.5 µM.
Compound `NC(=O)CN1C(=O)S/C(=C\c2cccc([N+](=O)[O-])c2)C1=O` [Compound 15c, (Z)-2-(5-(3-Nitrobenzylidene)thiazolidine-2,4-dion-3-yl)acetamide] came in with a melting point of 256 to 258 °C. For the same compound, the concentration giving a half-maximal response (EC50) in data set [1] (L. infantum promastigotes, MTT) stood at 13.3 ± 7.75 µM. In the data set on HepG2 cell line, the “Selectivity INDEX (SI = CC50/EC50)” value is on record as >4.7. Moreover, the CC50 at 72 h in data set [2] (setting [4]) is > 62.5 µM.
Consider `O=C(CN1C(=O)S/C(=C\c2ccccc2[N+](=O)[O-])C1=O)Nc1ccc([N+](=O)[O-])cc1` [Compound 26b, (Z)-2-(5-(2-Nitrobenzylidene)thiazolidine-2,4-dion-3-yl)-N-(4-nitroyphenyl) acetamide], for which the melting point fell in the range of 213 to 215 °C. In data set [1], the EC50 was 14.6 ± 2.91 µM. Besides, in the data set on HepG2 cell line, the “Selectivity INDEX (SI = CC50/EC50)” value came out at 2.1. In addition, the CC50 at 72 h in data set [2] was 30.1 ± 3.94 µM.
With `COc1ccc(NC(=O)CN2C(=O)S/C(=C\c3ccccc3[N+](=O)[O-])C2=O)cc1` [Compound 25b, (Z)-2-(5-(2-Nitrobenzylidene)thiazolidine-2,4-dion-3-yl)-N-(4-methoxyphenyl) acetamide], the melting point is 204 to 205 °C. In data set [1] (L. infantum promastigotes, MTT), the EC50 was determined as 22.3 ± 4.93 µM. The “Selectivity INDEX (SI = CC50/EC50)” value with HepG2 cell line is given as 1.1. Besides, half-maximal cytotoxicity in data set [2] (setting [4]) (CC50 at 72 h) was put at 23.3 ± 2.93 µM.
Taken in the same sequence, the figures for `Cc1ccc(NC(=O)CN2C(=O)S/C(=C\c3ccccc3[N+](=O)[O-])C2=O)cc1` [Compound 24b, (Z)-N-(4-Methylphenyl)-2-(5-(2-nitrobenzylidene)thiazolidine-2,4-dion-3-yl) acetamide] were 181 to 183 °C, 24.8 ± 6.68 µM, 1.2 and 30.9 ± 3.97 µM.
For `O=C(CN1C(=O)S/C(=C\c2ccc([N+](=O)[O-])cc2)C1=O)Nc1ccc([N+](=O)[O-])cc1` [Compound 26d, (Z)-2-(5-(4-Nitrobenzylidene)thiazolidine-2,4-dion-3-yl)-N-(4-nitroyphenyl) acetamide], the melting point lay in the range of 284 to 285 °C. In addition, in data set [1], the EC50 was determined as 14.1 ± 2.8 µM. For the same compound, in the data set with HepG2 cell line, the “Selectivity INDEX (SI = CC50/EC50)” value is >1.8. Moreover, in data set [2], the CC50 at 72 h is > 25 µM.
Taken in the same sequence, the figures for `O=C(CN1C(=O)S/C(=C\c2cccc([N+](=O)[O-])c2)C1=O)Nc1ccc([N+](=O)[O-])cc1` [Compound 26c, (Z)-2-(5-(3-Nitrobenzylidene)thiazolidine-2,4-dion-3-yl)-N-(4-nitroyphenyl) acetamide] were 264 to 266 °C, 7.2 ± 1.48 µM, >3.5 and > 25 µM.
Regarding `CCOC(=O)CN1C(=O)S/C(=C\c2ccccc2[N+](=O)[O-])C1=O` [Compound 12b, Ethyl ((Z)-5-(2-nitrobenzylidene)thiazolidine-2,4-dion-3-yl)acetate], the melting point lay in the range of 81 to 83 °C. Besides, the EC50 in data set [1] (L. infantum promastigotes, MTT) was determined as 24.1 ± 5.14 µM. The “Selectivity INDEX (SI = CC50/EC50)” value in the data set with HepG2 cell line amounted to 1.6. Besides, the CC50 at 72 h in data set [2] (setting [4]) turned out to be 39.4 ± 7.09 µM.
In turn, `CCOC(=O)CN1C(=O)S/C(=C\c2ccc([N+](=O)[O-])cc2)C1=O` [Compound 12d, Ethyl ((Z)-5-(4-nitrobenzylidene)thiazolidine-2,4-dion-3-yl)acetate] registered a melting point of 136 to 138 °C. Moreover, the EC50 in data set [1] (L. infantum promastigotes, MTT) is 11.6 ± 2.37 µM. In the data set on HepG2 cell line, the “Selectivity INDEX (SI = CC50/EC50)” value is recorded as >10.8 and the CC50 is > 125 µM. The compound further registered a cytotoxic concentration (CC50) at 72 h in data set [2] (setting [4]) of 101 to 125 µM.
In the case of `O=C(CN1C(=O)S/C(=C\c2ccccc2[N+](=O)[O-])C1=O)Nc1ccc(Cl)cc1` [Compound 27b, (Z)-N-(4-Chlorophenyl)-2-(5-(2-nitrobenzylidene)thiazolidine-2,4-dion-3-yl) acetamide], the melting point lay within 188 to 190 °C. In addition, in data set [1] (L. infantum promastigotes, MTT), the EC50 was determined as 16.3 ± 3.85 µM. Besides, the “Selectivity INDEX (SI = CC50/EC50)” value with HepG2 cell line is 2.1. Further, the CC50 at 72 h in data set [2] (setting [4]) was 34.6 ± 3.03 µM.

Values taken from article PMC11280390, “Synthesis of Nitrostyrylthiazolidine-2,4-dione Derivatives Displaying Antileishmanial Potential” (Pharmaceuticals, 2024).
